Laboratory results as given in patent publication US8076487B2, “Pyridone derivative and herbicide” (Kumiai Chemical Industry Co., Ltd., priority 2006, dated 2011).

How the values were obtained:
Type in all cases: in vivo
[1] = test system: Japanese bulrush (Scirpus juncoides Roxb.); test: Test Example 1: herbicidal effect by soil application to paddy field; conditions: paddy field soil application; active ingredient 1,000 g per 1 hectare; wettable powder added dropwise to water surface the day after sowing; examined on the 21st day after application
Outline: (§1)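 Plants were sown in flooded (3 cm) paddy soil and evaluated for herbicidal effect 21 days after soil application in a greenhouse.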

[2] = test system: early watergrass (Echinochloa oryzicola Vasing); test: as above; conditions: paddy field soil application; active ingredient 1,000 g per 1 hectare; wettable powder added dropwise to water surface the day after sowing; examined on the 21st day after application
Outline: as §1

[3] = test system: heartshape false pickerelweed (Monochoria vaginalis (Burm.f.) C.Presl); test: as above; conditions: paddy field soil application; active ingredient 1,000 g per 1 hectare; wettable powder added dropwise to water surface the day after sowing; examined on the 21st day after application
Outline: as §1

[4] = test system: barnyardgrass (Echinochloa crus-galli (L.) P. Beauv. var. crus-galli); test: Test Example 2: herbicidal effect by soil application to upland field; conditions: soil surface spray, upland field soil, 1,000 g active ingredient per hectare, 21st day after application
Outline: (§2)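 After sowing and covering, the soil received an even aqueous spray of wettable powder at a rate of 1,000 g active ingredient/ha (1,000 L/ha). Ratings of herbicidal effect followed a standard scale 21 days post-treatment, with plants held in a greenhouse.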

[5] = test system: green foxtail (Setaria viridis (L.) P. Beauv.); test: as above; conditions: soil surface spray, upland field soil, 1,000 g active ingredient per hectare, 21st day after application
Outline: as §2

[6] = test system: slender amaranth (Amaranthus viridis L.); test: as above; conditions: soil surface spray, upland field soil, 1,000 g active ingredient per hectare, 21st day after application
Outline: as §2

[7] = test system: velvetleaf (Abutilon theophrasti medicus); test: as above; conditions: soil surface spray, upland field soil, 1,000 g active ingredient per hectare, 21st day after application
Outline: as §2

[8] = test system: barnyardgrass (Echinochloa crus-galli (L.) P. Beauv. var. crus-galli); test: Test Example 3: herbicidal effect by application to upland field (foliage treatment); conditions: 14th day after application; for herbicidal effect, Barnyardgrass: foliage treatment, 1,000 g active ingredient per 1 hectare, greenhouse
Outline: (§3)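 Seeds went into pots of field soil and grew under glass for two weeks. The whole plant was then sprayed from above with diluted wettable powder delivering 1,000 g/ha of active ingredient. Plants stayed in the greenhouse, and injury was graded against a standard 14 days after spraying.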

[9] = test system: green foxtail (Setaria viridis (L.) P. Beauv.); test: as above; conditions: 14th day after application; for herbicidal effect, Green Foxtail: foliage treatment, 1,000 g active ingredient per 1 hectare, greenhouse
Outline: as §3

[10] = test system: slender amaranth (Amaranthus viridis L.); test: as above; conditions: 14th day after application; for herbicidal effect, Slender Amaranth: foliage treatment, 1,000 g active ingredient per 1 hectare, greenhouse
Outline: as §3

[11] = test system: velvetleaf (Abutilon theophrasti medicus); test: as above; conditions: 14th day after application; for herbicidal effect, Velvetleaf: foliage treatment, 1,000 g active ingredient per 1 hectare, greenhouse
Outline: as §3

[12] = foliage treatment, plants grown two weeks, 1,000 g active ingredient per hectare

Row | SMILES | herbicidal effect, Scirpus juncoides Roxb. [1] | herbicidal effect, Echinochloa oryzicola Vasing [2] | herbicidal effect, Monochoria vaginalis (Burm. f.) C. Presl [3] | herbicidal effect (index), Barnyardgrass [4] | herbicidal effect (index), Green Foxtail [5] | herbicidal effect (index), Slender Amaranth [6] | herbicidal effect (index), Velvetleaf [7] | herbicidal effect (index), Barnyardgrass [8, 12] | herbicidal effect (index), Green Foxtail [9, 12] | herbicidal effect (index), Slender Amaranth [10, 12] | herbicidal effect (index), Velvetleaf [11, 12] | herbicidal effect, Barnyardgrass [8] | herbicidal effect, Green Foxtail [9] | herbicidal effect, Slender Amaranth [10] | herbicidal effect, Velvetleaf [11]
1 | CC(C)n1c(C(F)(F)F)ccc(C(=O)C2=C(O)CCCC2=O)c1=O [I-4] | 5 (90% or more of herbicidal effect and crop phytotoxicity) | 5 (90% or more of herbicidal effect and crop phytotoxicity) | 5 (90% or more of herbicidal effect and crop phytotoxicity) | 5 (90% or more of herbicidal effect and crop phytotoxicity) | 4 (70 to less than 90% of herbicidal effect and crop phytotoxicity) | 5 (90% or more of herbicidal effect and crop phytotoxicity) | 5 (90% or more of herbicidal effect and crop phytotoxicity) | 5 (90% or more of herbicidal effect and crop phytotoxicity) | 3 (50 to less than 70% of herbicidal effect and crop phytotoxicity) | 5 (90% or more of herbicidal effect and crop phytotoxicity) | 5 (90% or more of herbicidal effect and crop phytotoxicity) |  |  |  | 
2 | CCCCn1c(C(F)(F)F)ccc(C(=O)c2cnn(C)c2O)c1=O [IV-6] | 5 (90% or more of herbicidal effect and crop phytotoxicity) | 5 (90% or more of herbicidal effect and crop phytotoxicity) | 5 (90% or more of herbicidal effect and crop phytotoxicity) | 5 (90% or more of herbicidal effect and crop phytotoxicity) | 5 (90% or more of herbicidal effect and crop phytotoxicity) | 5 (90% or more of herbicidal effect and crop phytotoxicity) | 5 (90% or more of herbicidal effect and crop phytotoxicity) |  |  |  |  | 5 (90% or more of herbicidal effect and crop phytotoxicity) | 5 (90% or more of herbicidal effect and crop phytotoxicity) | 5 (90% or more of herbicidal effect and crop phytotoxicity) | 5 (90% or more of herbicidal effect and crop phytotoxicity)
3 | COCCCn1c(C(F)(F)F)ccc(C(=O)c2cnn(C)c2O)c1=O [IV-47] | 5 (90% or more of herbicidal effect and crop phytotoxicity) | 5 (90% or more of herbicidal effect and crop phytotoxicity) | 5 (90% or more of herbicidal effect and crop phytotoxicity) | 4 (70 to less than 90% of herbicidal effect and crop phytotoxicity) | 5 (90% or more of herbicidal effect and crop phytotoxicity) | 5 (90% or more of herbicidal effect and crop phytotoxicity) | 5 (90% or more of herbicidal effect and crop phytotoxicity) |  |  |  |  | 4 (70 to less than 90% of herbicidal effect and crop phytotoxicity) | 5 (90% or more of herbicidal effect and crop phytotoxicity) | 5 (90% or more of herbicidal effect and crop phytotoxicity) | 5 (90% or more of herbicidal effect and crop phytotoxicity)
